How the values were obtained:
[1] = system: Tyrosine-protein kinase ABL1 (Homo sapiens), P00519 [T315I]; settings: Compound concentration 1000.0 nM
[2] = target: D(1A) dopamine receptor (Homo sapiens) (UniProt P21728); settings: Compound concentration 10.0 uM
[3] = target: Alpha-1A adrenergic receptor (Homo sapiens) (UniProt P35348); assay: Alpha1A (h) Eurofins-Cerep binding assay; design: ligand concentration 0.1 nM; settings: filed as antagonist, Compound concentration 10.0 uM
[4] = target: Non-receptor tyrosine-protein kinase TYK2 (Homo sapiens) (UniProt P29597); settings: Compound concentration 1000.0 nM
[5] = target: Serine/threonine-protein kinase 24 (Homo sapiens) (UniProt Q9Y6E0); settings: Compound concentration 1000.0 nM
[6] = target: Serine/threonine-protein kinase NLK (Homo sapiens) (UniProt Q9UBE8); settings: Compound concentration 1000.0 nM
[7] = target: Serine/threonine-protein kinase WNK1 (Homo sapiens) (UniProt Q9H4A3); settings: Compound concentration 1000.0 nM
Chain of Serine/threonine-protein kinase WNK1 (Homo sapiens) (Q9H4A3 whole entry, looked up): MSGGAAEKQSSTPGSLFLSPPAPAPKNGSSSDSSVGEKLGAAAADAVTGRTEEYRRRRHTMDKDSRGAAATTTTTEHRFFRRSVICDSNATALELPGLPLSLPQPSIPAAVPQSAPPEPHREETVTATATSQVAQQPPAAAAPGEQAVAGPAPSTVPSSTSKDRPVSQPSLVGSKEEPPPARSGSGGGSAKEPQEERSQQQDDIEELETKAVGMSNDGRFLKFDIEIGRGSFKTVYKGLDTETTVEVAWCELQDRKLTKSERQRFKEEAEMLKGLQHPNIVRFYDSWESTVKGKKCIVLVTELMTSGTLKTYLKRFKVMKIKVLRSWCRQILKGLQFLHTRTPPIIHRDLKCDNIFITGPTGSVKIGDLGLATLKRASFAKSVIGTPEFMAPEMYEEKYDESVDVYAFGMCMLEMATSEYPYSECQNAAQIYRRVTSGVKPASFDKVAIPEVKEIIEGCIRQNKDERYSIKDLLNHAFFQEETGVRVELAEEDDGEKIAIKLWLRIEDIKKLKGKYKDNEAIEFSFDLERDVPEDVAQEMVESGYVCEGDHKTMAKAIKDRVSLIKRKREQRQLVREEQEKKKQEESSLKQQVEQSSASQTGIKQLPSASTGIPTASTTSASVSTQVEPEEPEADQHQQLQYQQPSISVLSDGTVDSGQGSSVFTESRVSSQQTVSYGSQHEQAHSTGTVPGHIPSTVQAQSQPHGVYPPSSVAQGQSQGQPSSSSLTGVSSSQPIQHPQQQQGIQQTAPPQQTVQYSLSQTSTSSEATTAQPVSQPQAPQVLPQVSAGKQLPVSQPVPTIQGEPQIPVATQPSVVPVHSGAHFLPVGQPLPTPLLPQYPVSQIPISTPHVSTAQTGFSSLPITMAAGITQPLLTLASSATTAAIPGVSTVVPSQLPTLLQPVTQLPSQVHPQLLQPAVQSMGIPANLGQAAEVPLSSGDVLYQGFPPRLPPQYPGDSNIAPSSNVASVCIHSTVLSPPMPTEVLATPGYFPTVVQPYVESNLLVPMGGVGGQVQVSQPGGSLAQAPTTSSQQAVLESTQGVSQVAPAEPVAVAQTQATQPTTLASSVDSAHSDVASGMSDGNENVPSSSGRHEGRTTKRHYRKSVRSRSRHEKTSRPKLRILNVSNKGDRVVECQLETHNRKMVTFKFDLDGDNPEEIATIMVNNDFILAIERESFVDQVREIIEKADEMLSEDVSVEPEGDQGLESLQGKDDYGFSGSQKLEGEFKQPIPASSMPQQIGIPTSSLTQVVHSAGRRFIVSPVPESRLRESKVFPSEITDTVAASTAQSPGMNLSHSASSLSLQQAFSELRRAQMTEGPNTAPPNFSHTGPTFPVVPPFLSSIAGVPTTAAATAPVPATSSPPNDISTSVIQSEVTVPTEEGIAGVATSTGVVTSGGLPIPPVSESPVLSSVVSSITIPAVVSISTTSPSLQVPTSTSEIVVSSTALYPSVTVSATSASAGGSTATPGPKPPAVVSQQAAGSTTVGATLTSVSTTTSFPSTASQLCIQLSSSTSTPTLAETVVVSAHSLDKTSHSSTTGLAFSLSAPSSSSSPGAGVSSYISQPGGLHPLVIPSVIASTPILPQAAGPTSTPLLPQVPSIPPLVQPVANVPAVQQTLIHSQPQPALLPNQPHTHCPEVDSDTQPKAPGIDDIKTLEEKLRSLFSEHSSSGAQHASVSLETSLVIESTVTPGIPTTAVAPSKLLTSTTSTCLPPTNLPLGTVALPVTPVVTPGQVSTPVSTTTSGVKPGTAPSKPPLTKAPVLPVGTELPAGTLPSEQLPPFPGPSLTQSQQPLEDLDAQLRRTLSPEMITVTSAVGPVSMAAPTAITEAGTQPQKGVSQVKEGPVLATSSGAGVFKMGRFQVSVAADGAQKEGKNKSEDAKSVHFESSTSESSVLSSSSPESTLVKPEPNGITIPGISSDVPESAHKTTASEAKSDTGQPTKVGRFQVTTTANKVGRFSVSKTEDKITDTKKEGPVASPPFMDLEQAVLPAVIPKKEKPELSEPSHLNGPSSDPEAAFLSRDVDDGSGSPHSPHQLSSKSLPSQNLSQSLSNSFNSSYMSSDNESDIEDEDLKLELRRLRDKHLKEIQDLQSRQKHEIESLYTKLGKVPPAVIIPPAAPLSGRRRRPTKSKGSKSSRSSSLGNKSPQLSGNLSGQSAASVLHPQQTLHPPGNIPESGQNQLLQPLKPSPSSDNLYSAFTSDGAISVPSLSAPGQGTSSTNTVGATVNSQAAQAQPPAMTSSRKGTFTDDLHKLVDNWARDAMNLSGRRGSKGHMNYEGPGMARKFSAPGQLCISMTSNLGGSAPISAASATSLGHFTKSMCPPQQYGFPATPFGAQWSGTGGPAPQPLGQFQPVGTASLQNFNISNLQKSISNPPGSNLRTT

[8] = target: Dual specificity protein kinase CLK1 (Homo sapiens) (UniProt P49759); settings: Compound concentration 1000.0 nM
Chain of Dual specificity protein kinase CLK1 (Homo sapiens) (P49759 whole entry, looked up): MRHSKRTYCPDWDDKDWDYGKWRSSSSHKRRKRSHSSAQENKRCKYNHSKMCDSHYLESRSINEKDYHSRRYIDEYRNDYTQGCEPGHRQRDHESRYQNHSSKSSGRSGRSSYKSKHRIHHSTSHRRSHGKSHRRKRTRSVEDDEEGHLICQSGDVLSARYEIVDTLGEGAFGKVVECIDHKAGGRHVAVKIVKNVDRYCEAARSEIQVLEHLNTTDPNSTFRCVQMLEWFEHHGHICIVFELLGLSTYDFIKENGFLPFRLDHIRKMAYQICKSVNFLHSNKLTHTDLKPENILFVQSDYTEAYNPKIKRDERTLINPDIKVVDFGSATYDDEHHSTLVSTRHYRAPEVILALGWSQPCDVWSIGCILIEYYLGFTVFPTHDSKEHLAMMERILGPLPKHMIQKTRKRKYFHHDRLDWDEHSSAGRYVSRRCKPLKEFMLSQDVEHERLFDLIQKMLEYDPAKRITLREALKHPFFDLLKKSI

[9] = target: Serine/threonine-protein kinase tousled-like 2 (Homo sapiens) (UniProt Q86UE8); settings: Compound concentration 1000.0 nM
Chain of Serine/threonine-protein kinase tousled-like 2 (Homo sapiens) (Q86UE8 whole entry, looked up): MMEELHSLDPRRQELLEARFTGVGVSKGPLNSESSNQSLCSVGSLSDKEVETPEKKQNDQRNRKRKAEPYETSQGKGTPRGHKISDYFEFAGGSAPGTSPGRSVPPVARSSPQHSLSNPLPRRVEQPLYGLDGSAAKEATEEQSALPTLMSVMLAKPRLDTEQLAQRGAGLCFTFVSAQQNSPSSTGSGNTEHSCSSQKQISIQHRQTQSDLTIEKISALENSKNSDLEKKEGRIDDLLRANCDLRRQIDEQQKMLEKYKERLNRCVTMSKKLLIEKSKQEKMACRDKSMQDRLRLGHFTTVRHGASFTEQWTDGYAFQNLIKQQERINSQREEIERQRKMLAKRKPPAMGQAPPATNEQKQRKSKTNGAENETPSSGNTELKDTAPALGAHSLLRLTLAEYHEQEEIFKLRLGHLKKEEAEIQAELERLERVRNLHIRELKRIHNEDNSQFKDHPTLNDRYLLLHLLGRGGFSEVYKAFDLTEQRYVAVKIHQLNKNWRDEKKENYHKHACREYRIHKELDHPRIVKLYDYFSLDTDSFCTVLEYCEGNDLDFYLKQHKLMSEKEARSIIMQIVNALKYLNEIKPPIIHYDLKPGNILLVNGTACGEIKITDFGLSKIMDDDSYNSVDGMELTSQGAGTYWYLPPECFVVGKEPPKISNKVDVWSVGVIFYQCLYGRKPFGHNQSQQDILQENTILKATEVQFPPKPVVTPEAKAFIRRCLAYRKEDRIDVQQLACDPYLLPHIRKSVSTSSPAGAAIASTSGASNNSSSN

[10] = target: Serine/threonine-protein kinase Nek11 (Homo sapiens) (UniProt Q8NG66); settings: Compound concentration 1000.0 nM
Chain of Serine/threonine-protein kinase Nek11 (Homo sapiens) (Q8NG66 whole entry, the tested form may be a part): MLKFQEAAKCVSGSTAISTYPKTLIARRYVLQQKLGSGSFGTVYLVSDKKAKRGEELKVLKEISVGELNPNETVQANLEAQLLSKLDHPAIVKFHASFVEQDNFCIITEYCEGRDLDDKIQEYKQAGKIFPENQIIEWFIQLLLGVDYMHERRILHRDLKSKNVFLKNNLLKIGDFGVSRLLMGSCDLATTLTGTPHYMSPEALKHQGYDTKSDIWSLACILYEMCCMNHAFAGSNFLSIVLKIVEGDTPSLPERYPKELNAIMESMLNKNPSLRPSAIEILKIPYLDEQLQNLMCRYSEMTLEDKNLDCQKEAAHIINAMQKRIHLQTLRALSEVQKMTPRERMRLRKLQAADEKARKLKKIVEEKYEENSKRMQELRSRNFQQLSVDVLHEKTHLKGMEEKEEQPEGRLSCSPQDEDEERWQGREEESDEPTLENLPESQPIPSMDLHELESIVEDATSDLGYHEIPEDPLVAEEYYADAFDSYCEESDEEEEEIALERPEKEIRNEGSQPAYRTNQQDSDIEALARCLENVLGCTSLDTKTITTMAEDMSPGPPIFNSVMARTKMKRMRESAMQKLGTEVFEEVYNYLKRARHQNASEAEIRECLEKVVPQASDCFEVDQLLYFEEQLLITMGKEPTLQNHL

[11] = target: Epithelial discoidin domain-containing receptor 1 (Homo sapiens) (UniProt Q08345); settings: Compound concentration 1000.0 nM
[12] = target: Ephrin type-B receptor 4 (Homo sapiens) (UniProt P54760); settings: Compound concentration 1000.0 nM
[13] = target: Serine/threonine-protein kinase WNK2 (Homo sapiens) (UniProt Q9Y3S1); settings: Compound concentration 1000.0 nM
[14] = target: Phosphatidylinositol 4-phosphate 5-kinase type-1 gamma (Homo sapiens) (UniProt O60331); settings: Compound concentration 1000.0 nM
[15] = target: Activated CDC42 kinase 1 (Homo sapiens) (UniProt Q07912); settings: Compound concentration 1000.0 nM
[16] = system: Tyrosine-protein kinase ABL1 (Homo sapiens), P00519 [H396P]; settings: Compound concentration 1000.0 nM
[17] = target: Melatonin receptor type 1B (Homo sapiens) (UniProt P49286); assay: MT2 (ML1B) (h) Eurofins-Cerep binding assay; design: ligand concentration 0.05 nM; settings: filed as agonist, Compound concentration 10.0 uM
[18] = target: Protein kinase C epsilon type (Homo sapiens) (UniProt Q02156); settings: Compound concentration 1000.0 nM
[19] = target: Histamine H4 receptor (Homo sapiens) (UniProt Q9H3N8); settings: Compound concentration 10.0 uM
[20] = target: Ephrin type-A receptor 4 (Homo sapiens) (UniProt P54764); settings: Compound concentration 1000.0 nM
[21] = target: Tyrosine-protein kinase Srms (Homo sapiens) (UniProt Q9H3Y6); settings: Compound concentration 1000.0 nM
[22] = target: T1, Muscarinic acetylcholine receptor M2 (Homo sapiens) (UniProt P08172); assay: M2 (h) Eurofins-Cerep binding assay; design: ligand concentration 2 nM; settings: filed as antagonist, Compound concentration 10.0 uM
T1 sequence (whole entry): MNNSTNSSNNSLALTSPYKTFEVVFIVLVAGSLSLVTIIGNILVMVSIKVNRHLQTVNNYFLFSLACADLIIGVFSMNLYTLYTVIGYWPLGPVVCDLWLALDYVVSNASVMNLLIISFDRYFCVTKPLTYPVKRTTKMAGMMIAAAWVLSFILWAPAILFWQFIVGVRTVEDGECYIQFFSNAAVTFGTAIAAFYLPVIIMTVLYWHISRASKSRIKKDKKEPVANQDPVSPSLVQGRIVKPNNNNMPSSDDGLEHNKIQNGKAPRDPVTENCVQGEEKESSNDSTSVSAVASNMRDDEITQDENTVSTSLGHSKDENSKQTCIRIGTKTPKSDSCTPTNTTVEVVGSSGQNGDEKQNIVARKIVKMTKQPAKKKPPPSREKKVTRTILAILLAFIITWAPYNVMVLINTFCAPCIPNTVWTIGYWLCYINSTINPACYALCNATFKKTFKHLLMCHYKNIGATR

[23] = target: Calcium/calmodulin-dependent protein kinase kinase 2 (Homo sapiens) (UniProt Q96RR4); settings: Compound concentration 1000.0 nM
Chain of Calcium/calmodulin-dependent protein kinase kinase 2 (Homo sapiens) (Q96RR4 2-588 limits assumed): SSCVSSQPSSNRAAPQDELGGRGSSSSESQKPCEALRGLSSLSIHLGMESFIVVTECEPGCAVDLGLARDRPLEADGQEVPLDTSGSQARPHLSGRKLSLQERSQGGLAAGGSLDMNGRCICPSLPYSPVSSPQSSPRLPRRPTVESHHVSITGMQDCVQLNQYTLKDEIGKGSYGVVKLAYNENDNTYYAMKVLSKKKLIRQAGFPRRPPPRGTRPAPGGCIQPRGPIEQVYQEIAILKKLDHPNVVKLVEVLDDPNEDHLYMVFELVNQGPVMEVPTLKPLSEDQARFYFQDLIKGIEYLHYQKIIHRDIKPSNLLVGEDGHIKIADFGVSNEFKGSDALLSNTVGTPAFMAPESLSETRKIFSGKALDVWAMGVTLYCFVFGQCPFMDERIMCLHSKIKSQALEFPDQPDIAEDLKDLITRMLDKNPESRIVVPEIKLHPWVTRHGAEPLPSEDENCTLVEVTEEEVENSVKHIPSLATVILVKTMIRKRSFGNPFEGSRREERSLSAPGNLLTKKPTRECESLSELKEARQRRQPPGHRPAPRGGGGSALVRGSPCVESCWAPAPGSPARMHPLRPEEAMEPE

[24] = target: Atypical kinase COQ8A, mitochondrial (Homo sapiens) (UniProt Q8NI60); settings: Compound concentration 1000.0 nM
[25] = target: Histamine H2 receptor (Homo sapiens) (UniProt P25021); settings: Compound concentration 10.0 uM
[26] = target: LIM domain kinase 1 (Homo sapiens) (UniProt P53667); settings: Compound concentration 1000.0 nM
[27] = target: T2, 5-hydroxytryptamine receptor 1A (Homo sapiens) (UniProt P08908); assay: 5-HT1A (h) Eurofins-Cerep binding assay; design: ligand concentration 0.5 nM; settings: filed as agonist, Compound concentration 10.0 uM
T2 sequence (whole entry): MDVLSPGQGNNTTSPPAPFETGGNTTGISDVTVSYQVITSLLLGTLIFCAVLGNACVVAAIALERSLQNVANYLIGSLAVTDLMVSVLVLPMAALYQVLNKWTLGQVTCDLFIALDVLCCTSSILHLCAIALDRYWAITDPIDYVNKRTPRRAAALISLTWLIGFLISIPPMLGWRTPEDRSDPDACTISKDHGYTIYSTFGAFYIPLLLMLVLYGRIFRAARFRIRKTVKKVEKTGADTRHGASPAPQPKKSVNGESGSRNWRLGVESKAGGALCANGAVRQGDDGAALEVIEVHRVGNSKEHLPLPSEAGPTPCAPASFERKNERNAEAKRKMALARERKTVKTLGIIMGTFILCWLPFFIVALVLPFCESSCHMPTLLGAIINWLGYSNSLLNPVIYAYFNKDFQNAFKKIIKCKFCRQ

[28] = target: Dual specificity protein kinase TTK (Homo sapiens) (UniProt P33981); settings: Compound concentration 1000.0 nM
[29] = target: Myosin light chain kinase family member 4 (Homo sapiens) (UniProt Q86YV6); settings: Compound concentration 1000.0 nM
[30] = system: eIF-2-alpha kinase GCN2 (Homo sapiens), Q9P2K8 [S808G]; settings: Compound concentration 1000.0 nM
[31] = system: Hepatocyte growth factor receptor (Homo sapiens), P08581 [Y1235D]; settings: Compound concentration 1000.0 nM
[32] = target: Serine/threonine-protein kinase VRK2 (Homo sapiens) (UniProt Q86Y07); settings: Compound concentration 1000.0 nM
[33] = system: Epidermal growth factor receptor (Homo sapiens), P00533 [T790M]; settings: Compound concentration 1000.0 nM

Compound: O=C(NS(=O)(=O)c1ccc(NCC2CCOCC2)c([N+](=O)[O-])c1)c1ccc(N2CCN(Cc3ccc(C(F)(F)F)cc3-c3ccc(Cl)cc3)CC2)cc1Oc1cnc2[nH]ccc2c1 [A-1210227]
- residual activity [1]: 82%
- inhibition [2]: 34.2%
- % Inhibition of Control Specific Binding (Mean n=2) [3]: -5.1%
- residual activity [4]: 73%
- residual activity [5]: 100%
- residual activity [6]: 93%
- residual activity [7]: 100%
- residual activity [8]: 69%
- residual activity [9]: 100%
- residual activity [10]: 97%
- residual activity [11]: 100%
- residual activity [12]: 100%
- residual activity [13]: 75%
- residual activity [14]: 100%
- residual activity [15]: 100%
- residual activity [16]: 92%
- % Inhibition of Control Specific Binding (Mean n=2) [17]: 10.2%
- residual activity [18]: 100%
- inhibition [19]: -2.4%
- residual activity [20]: 100%
- residual activity [21]: 79%
- % Inhibition of Control Specific Binding (Mean n=2) [22]: 0.3%
- residual activity [23]: 99%
- residual activity [24]: 100%
- inhibition [25]: 8.95%
- residual activity [26]: 85%
- % Inhibition of Control Specific Binding (Mean n=2) [27]: -3.4%
- residual activity [28]: 100%
- residual activity [29]: 100%
- residual activity [30]: 85%
- residual activity [31]: 98%
- residual activity [32]: 89%
- residual activity [33]: 98%

Compound: CO[C@H]1CC[C@H](CNc2ccc(S(=O)(=O)NC(=O)c3ccc(N4CCN(CC5=C(c6ccc(Cl)cc6)CC(C)(C)CC5)CC4)cc3Oc3cnc4[nH]ccc4c3)cc2[N+](=O)[O-])CC1 [A-1211212]
- residual activity [1]: 100%
- inhibition [2]: 28.2%
- % Inhibition of Control Specific Binding (Mean n=2) [3]: -3.8%
- residual activity [4]: 67%
- residual activity [5]: 75%
- residual activity [6]: 100%
- residual activity [7]: 100%
- residual activity [8]: 92%
- residual activity [9]: 87%
- residual activity [10]: 100%
- residual activity [11]: 99%
- residual activity [12]: 100%
- residual activity [13]: 76%
- residual activity [14]: 100%
- residual activity [15]: 96%
- residual activity [16]: 94%
- % Inhibition of Control Specific Binding (Mean n=2) [17]: 32%
- residual activity [18]: 79%
- inhibition [19]: 4.94%
- residual activity [20]: 88%
- residual activity [21]: 89%
- % Inhibition of Control Specific Binding (Mean n=2) [22]: -4.7%
- residual activity [23]: 81%
- residual activity [24]: 99%
- inhibition [25]: 13.6%
- residual activity [26]: 89%
- % Inhibition of Control Specific Binding (Mean n=2) [27]: -2.7%
- residual activity [28]: 82%
- residual activity [29]: 98%
- residual activity [30]: 96%
- residual activity [31]: 92%
- residual activity [32]: 71%
- residual activity [33]: 98%
